Source: publication PMC4303209, “A novel phosphatidylinositol 3-kinase (PI3K) inhibitor directs a potent FOXO-dependent, p53-independent cell cycle arrest phenotype characterized by the differential induction of a subset of FOXO-regulated genes” (Breast Cancer Research : BCR, 2014)

Tested on: MCF-7 breast cancer cells
Experiment: Microarray gene expression analysis (Agilent whole human genome 4 x 44K; compound vs DMSO, LIMMA log2 fold change)
Assay type: cell-based
Conditions: cell cycle genes

SMILES: Cn1ncc2c(N3CCOCC3)nc(-c3cccc(O)c3)nc21 [ETP-45658]
- MLF1 log2FC (Gene 4291): 0.627
- MLH1 log2FC (Gene 4292): 0.538
- MAP3K11 log2FC (Gene 4296): -0.949
- MNAT1 log2FC (Gene 4331): 0.729
- MNT log2FC (Gene 4335): 1.624
- MOS log2FC (Gene 4342): -0.164
- MRE11A log2FC (Gene 4361): 0.332
- MSH2 log2FC (Gene 4436): 0.939
- MSH3 log2FC (Gene 4437): 0.739
- MSH4 log2FC (Gene 4438): -0.048
- MSX1 log2FC (Gene 4487): -0.324
- MSX2 log2FC (Gene 4488): 0.054
- MUC1 log2FC (Gene 4582): -0.901
- TRIM37 log2FC (Gene 4591): 0.868
- MX2 log2FC (Gene 4600): -0.054
- MYB log2FC (Gene 4602): 0.452
- MYBL2 log2FC (Gene 4605): -0.545
- MYC log2FC (Gene 4609): 0.554
- GADD45B log2FC (Gene 4616): 0.642
- MYH9 log2FC (Gene 4627): -0.364
- MYH10 log2FC (Gene 4628): -0.039
- PPP1R12A log2FC (Gene 4659): 0.489
- PPP1R12B log2FC (Gene 4660): 0.389
- NUBP1 log2FC (Gene 4682): -0.227
- NBN log2FC (Gene 4683): 0.839
- NEDD9 log2FC (Gene 4739): -0.017
- NEK1 log2FC (Gene 4750): 0.621
- NEK2 log2FC (Gene 4751): 0.969
- NEUROD1 log2FC (Gene 4760): -0.043
- NGFR log2FC (Gene 4804): -0.063
- NOTCH2 log2FC (Gene 4853): 0.166
- NPAT log2FC (Gene 4863): 0.585
- NPM1 log2FC (Gene 4869): 0.586
- NUP88 log2FC (Gene 4927): 0.539
- ODF2 log2FC (Gene 4957): -0.215
- OSM log2FC (Gene 5008): 0.056
- OVOL1 log2FC (Gene 5017): -0.043
- PAFAH1B1 log2FC (Gene 5048): 0.720
- PAK1 log2FC (Gene 5058): 0.117
- PAK3 log2FC (Gene 5063): 0.230
- PCM1 log2FC (Gene 5108): 0.687
- PCNT log2FC (Gene 5116): 0.317
- PDGFB log2FC (Gene 5155): -0.598
- PDGFRB log2FC (Gene 5159): 0.022
- PGGT1B log2FC (Gene 5229): -0.232
- ABCB1 log2FC (Gene 5243): -0.025
- PIK3C3 log2FC (Gene 5289): 1.044
- PIM1 log2FC (Gene 5292): 1.131
- PIN1 log2FC (Gene 5300): -0.195
- PKD1 log2FC (Gene 5310): 0.265
- PKD2 log2FC (Gene 5311): 0.346
- PKHD1 log2FC (Gene 5314): -0.057
- PLAGL1 log2FC (Gene 5325): 0.310
- PML log2FC (Gene 5371): -0.804
- PMS1 log2FC (Gene 5378): 0.682
- PMS2 log2FC (Gene 5395): 0.442
- POLD1 log2FC (Gene 5424): 0.148
- POLE log2FC (Gene 5426): -0.223
- PPAT log2FC (Gene 5471): 0.243
- PPM1A log2FC (Gene 5494): 0.474
- PPP1CB log2FC (Gene 5500): 1.012
- PPP1CC log2FC (Gene 5501): 0.572
- PPP2R1A log2FC (Gene 5518): -0.055
- PPP2R2A log2FC (Gene 5520): 0.059
- PPP2R4 log2FC (Gene 5524): -0.446
- PPP2R5C log2FC (Gene 5527): 0.888
- PPP3CA log2FC (Gene 5530): 0.422
- PPP5C log2FC (Gene 5536): -0.138
- PPP6C log2FC (Gene 5537): -0.352
- PRCC log2FC (Gene 5546): -0.798
- PRIM1 log2FC (Gene 5557): 0.636
- PRKAA1 log2FC (Gene 5562): 0.429
- PRKAA2 log2FC (Gene 5563): 0.082
- PRKAB1 log2FC (Gene 5564): 0.427
- PRKAB2 log2FC (Gene 5565): 1.177
- PRKACA log2FC (Gene 5566): -0.596
- PKIA log2FC (Gene 5569): -0.378
- PRKAG1 log2FC (Gene 5571): 0.238
- PRKAR1A log2FC (Gene 5573): 0.532
- PRKAR2B log2FC (Gene 5577): 0.565
- PRKCA log2FC (Gene 5578): -0.217
- PRKCD log2FC (Gene 5580): -0.079
- PRKCE log2FC (Gene 5581): -0.042
- PKN2 log2FC (Gene 5586): 0.510
- MAPK1 log2FC (Gene 5594): -0.045
- MAPK3 log2FC (Gene 5595): -0.190
- MAPK13 log2FC (Gene 5603): -0.354
- MAP2K1 log2FC (Gene 5604): -0.107
- MAP2K6 log2FC (Gene 5608): 0.116
- PROX1 log2FC (Gene 5629): 0.206
- KLK10 log2FC (Gene 5655): -0.446
- PSMA1 log2FC (Gene 5682): 0.045
- PSMA4 log2FC (Gene 5685): 0.609
- PSMA6 log2FC (Gene 5687): 0.200
- PSMB1 log2FC (Gene 5689): 0.085
- PSMB2 log2FC (Gene 5690): -0.547
- PSMB3 log2FC (Gene 5691): -0.030
- PSMB5 log2FC (Gene 5693): -0.298
- PSMB6 log2FC (Gene 5694): -0.120
- PSMB8 log2FC (Gene 5696): -0.045
- PSMC1 log2FC (Gene 5700): 0.172
- PSMC2 log2FC (Gene 5701): 0.576
- PSMC5 log2FC (Gene 5705): -0.327
- PSMC6 log2FC (Gene 5706): 0.776
- PSMD2 log2FC (Gene 5708): 0.090
- PSMD3 log2FC (Gene 5709): -0.109
- PSMD4 log2FC (Gene 5710): -0.086
- PSMD5 log2FC (Gene 5711): 0.388
- PSMD7 log2FC (Gene 5713): 0.182
- PSMD9 log2FC (Gene 5715): -0.171
- PSMD12 log2FC (Gene 5718): -0.582
- PSMD13 log2FC (Gene 5719): -0.031
- PSME2 log2FC (Gene 5721): 0.039
- PTEN log2FC (Gene 5728): 1.014
- PTGS2 log2FC (Gene 5743): -0.151
- PTPN3 log2FC (Gene 5774): -0.174
- PTPN6 log2FC (Gene 5777): 0.120
- PTPRC log2FC (Gene 5788): -0.053
- PTPRK log2FC (Gene 5796): 0.583
- RAD1 log2FC (Gene 5810): -0.104
- RAD9A log2FC (Gene 5883): 0.686
- RAD17 log2FC (Gene 5884): 1.203
- RAD21 log2FC (Gene 5885): 1.043
- RAD51 log2FC (Gene 5888): -0.360
- RAD52 log2FC (Gene 5893): 0.105
- RAN log2FC (Gene 5901): 0.119
- RANBP1 log2FC (Gene 5902): -0.137
- RANBP2 log2FC (Gene 5903): 0.605
- RARA log2FC (Gene 5914): -0.580
- RASA1 log2FC (Gene 5921): 0.488
- RB1 log2FC (Gene 5925): 0.746
- RBL2 log2FC (Gene 5934): 0.480
- RFC1 log2FC (Gene 5981): 1.105
- RFC2 log2FC (Gene 5982): 0.117
- RFC5 log2FC (Gene 5985): 0.243
- RGS2 log2FC (Gene 5997): -2.314
- RHEB log2FC (Gene 6009): 0.421
- RNF2 log2FC (Gene 6045): -0.048
- RNF4 log2FC (Gene 6047): -0.426
- RPA3 log2FC (Gene 6119): 0.162
- RPS6KA2 log2FC (Gene 6196): 0.035
- RPS6KA3 log2FC (Gene 6197): 0.412
- RPS15A log2FC (Gene 6210): 0.277
- RPS27 log2FC (Gene 6232): 0.416
- RPS27A log2FC (Gene 6233): 0.401
- RRM1 log2FC (Gene 6240): 0.612
- RRM2 log2FC (Gene 6241): -0.808
- SETMAR log2FC (Gene 6419): -0.171
- SIAH2 log2FC (Gene 6478): -0.579
- SKP2 log2FC (Gene 6502): -1.072
- SMARCA4 log2FC (Gene 6597): -0.352
- SOX2 log2FC (Gene 6657): 0.298
- SOX9 log2FC (Gene 6662): -2.381
- SPAST log2FC (Gene 6683): 0.519
- SPTBN1 log2FC (Gene 6711): 0.111
- SRPK2 log2FC (Gene 6733): 0.850
- TRIM21 log2FC (Gene 6737): -0.066
